# Data from patent publication US20220098149A1, “METHOD FOR SYNTHESIS OF 9-CIS-BETA-CAROTENE AND FORMULATIONS THEREOF” (Ramot at Tel-Aviv University Ltd., priority 2016, published 2022).
# Assay: Initial stability tests of synthetic/purified 9CBC
# Type: physicochemical
structure (smiles),measurement,setting,value
"CC1=C(/C=C/C(C)=C\C=C\C(C)=C\C=C\C=C(C)\C=C\C=C(C)\C=C\C2=C(C)CCCC2(C)C)C(C)(C)CCC1 [9CBC, 9-cis-β-carotene]",Time to full decomposition,sensitive to oxygen and UV degradation,less than 24 hours
same,Stability of purified 9CBC,under vacuum or nitrogen flushing,unstable
